Results reported in PMC6429214, “Design, Synthesis and Biological Evaluation of Isoxazole-Based CK1 Inhibitors Modified with Chiral Pyrrolidine Scaffolds” (Molecules, 2019).

Assays:
[1] = molecular target: T1, human CK1δ transcription variant 1 (Homo sapiens, UniProt P48730); test: in-vitro kinase assay CK1δ; type: biochemical; conditions: 10 µM ATP, mean ± SD, n = 3
T1 construct: made in house; own knowledge
Source text: Human CK1δ transcription variant 1 (CK1δ TV1_NM_001893.4) has been amplified from the cDNA obtained from HT1080 cell line, using CK1δ_forward-primer: 5′-GGATCCATGGAGCTGAGAGTCGGGAACAG-3′ and CK1δ_reverse primer: 5′-GGATCCTCATCGGTGCACGACAGACTGA-3′. The CK1δ DNA construct was cloned into pSC-A cloning vector (Agilent technologies, Munich, Germany) with BamHI enzyme, to generate plasmids pGEX6-P3-GST-CK1δ TV1 (FP1417). Overexpression and purification of GST-CK1δ TV1 protein has been performed as described before.
In vitro kinase assays have been performed to both screen, as well as to calculate IC50 values of the compounds for CK1δ and ε. Each reaction was carried out using 2 μCi ^32P-γ-ATP in kinase buffer containing 25 mM Tris-HCl (pH = 7.5), 10 mM MgCl2, 100 µM EDTA, and 10 µM ATP. […] Recombinant human CK1δ transcription variant 1 (expressed and purified as GST fusion protein as described earlier) and human GST-CK1ε (PV3500; Invitrogen) were used as sources of enzyme, while α-casein (C6780; Sigma-Aldrich) was used as substrate. Kinase reactions were incubated for 30 min at 30 °C and then stopped with loading dye (50 mM Tris-HCl (pH = 6.8), 5% (v/v) β-mercaptoethanol (MSH), 10% (v/v) glycerol, 2% (w/v) sodium dodecyl sulfate (SDS), 0.1% (w/v) bromphenol blue). Subsequently, reactions were separated by sodium dodecyl sulfate polyacrylamide gel electrophoresis (SDS-PAGE) and phosphorylated protein bands were visualized on dried gels by autoradiography. The phosphorylated substrate protein bands were excised, and phosphorylation was quantified by Cherenkov counting. Dose-response analyses and calculation of IC50 values were carried out using GraphPad Prism 6 statistical software (San Diego, CA, USA).

[2] = LC-MS of aqueous solutions with and without PEG; type: physicochemical; conditions: LC-MS over 7 days, not in solutions without PEG
Source text: Since all analytical data for the originally employed inhibitors was consistent with the given structures, we postulate that the incorporation of an additional methylene group occurred via spontaneous Pictet-Spengler cyclization during crystallization. In line with this notion, PEG, which has been used in our soaking solutions, is known to generate formaldehyde traces that have been shown in the past to affect the derivatization of both, proteins and ligands. To further corroborate this hypothesis, we examined whether simple exposure of 29d/e to formaldehyde would give rise to the same Pictet-Spengler products 31a/b (Scheme 5). Indeed, when compounds 29d/e were treated with formaldehyde at room temperature 31a/b were formed readily and the obtained spectroscopic data was consistent with the predicted Pictet-Spengler products. In addition, aqueous solutions of 29d and 29e with and without PEG were analyzed by liquid chromatography-mass spectrometry (LC-MS) over a period of 7 days.
LC-MS was performed with a Bruker Esquire ~LC ion trap mass spectrometer (Bremen, Germany) in the positive ion mode (dry gas 9 L/min, nebulizer 35 psi, drying temperature 350 °C) after chromatographic separation using an Agilent 1100 HPLC system (Waldbronn, Germany) with a RP-8 column (Agilent Eclipse XDB-C8, 150 × 4.6 mm, 5 μm) and a 0.1% acetic acid/acetonitrile gradient.

CK2-alpha2 = molecular target: T2, CK2-alpha2 (Homo sapiens, UniProt P19784); test: 33PanQinase panel; type: biochemical; conditions: CK2-alpha2, 1 µM; read-out: Residual Activity (%)
T2 construct: purchased ProQinase
Method in brief: (§1)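 Percent residual kinase activity versus DMSO control, from a radiometric 33PanQinase assay at 1 µM compound.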

GRK5 = molecular target: T3, GRK5 (Homo sapiens, UniProt P34947); test: 33PanQinase panel; type: biochemical; conditions: GRK5, 1 µM; read-out: Residual Activity (%)
T3 construct: purchased ProQinase
Method in brief: as §1

RON = molecular target: T4, RON (Homo sapiens, UniProt Q04912); test: 33PanQinase panel; type: biochemical; conditions: read-out: Residual Activity (%)
T4 construct: purchased ProQinase
Method in brief: as §1

STK23 = molecular target: T5, STK23 (Homo sapiens, UniProt Q9UPE1); test: 33PanQinase panel; type: biochemical; conditions: STK23, 1 µM; read-out: Residual Activity (%)
T5 construct: purchased ProQinase
Method in brief: as §1

T4 sequence (Q04912 25-1400): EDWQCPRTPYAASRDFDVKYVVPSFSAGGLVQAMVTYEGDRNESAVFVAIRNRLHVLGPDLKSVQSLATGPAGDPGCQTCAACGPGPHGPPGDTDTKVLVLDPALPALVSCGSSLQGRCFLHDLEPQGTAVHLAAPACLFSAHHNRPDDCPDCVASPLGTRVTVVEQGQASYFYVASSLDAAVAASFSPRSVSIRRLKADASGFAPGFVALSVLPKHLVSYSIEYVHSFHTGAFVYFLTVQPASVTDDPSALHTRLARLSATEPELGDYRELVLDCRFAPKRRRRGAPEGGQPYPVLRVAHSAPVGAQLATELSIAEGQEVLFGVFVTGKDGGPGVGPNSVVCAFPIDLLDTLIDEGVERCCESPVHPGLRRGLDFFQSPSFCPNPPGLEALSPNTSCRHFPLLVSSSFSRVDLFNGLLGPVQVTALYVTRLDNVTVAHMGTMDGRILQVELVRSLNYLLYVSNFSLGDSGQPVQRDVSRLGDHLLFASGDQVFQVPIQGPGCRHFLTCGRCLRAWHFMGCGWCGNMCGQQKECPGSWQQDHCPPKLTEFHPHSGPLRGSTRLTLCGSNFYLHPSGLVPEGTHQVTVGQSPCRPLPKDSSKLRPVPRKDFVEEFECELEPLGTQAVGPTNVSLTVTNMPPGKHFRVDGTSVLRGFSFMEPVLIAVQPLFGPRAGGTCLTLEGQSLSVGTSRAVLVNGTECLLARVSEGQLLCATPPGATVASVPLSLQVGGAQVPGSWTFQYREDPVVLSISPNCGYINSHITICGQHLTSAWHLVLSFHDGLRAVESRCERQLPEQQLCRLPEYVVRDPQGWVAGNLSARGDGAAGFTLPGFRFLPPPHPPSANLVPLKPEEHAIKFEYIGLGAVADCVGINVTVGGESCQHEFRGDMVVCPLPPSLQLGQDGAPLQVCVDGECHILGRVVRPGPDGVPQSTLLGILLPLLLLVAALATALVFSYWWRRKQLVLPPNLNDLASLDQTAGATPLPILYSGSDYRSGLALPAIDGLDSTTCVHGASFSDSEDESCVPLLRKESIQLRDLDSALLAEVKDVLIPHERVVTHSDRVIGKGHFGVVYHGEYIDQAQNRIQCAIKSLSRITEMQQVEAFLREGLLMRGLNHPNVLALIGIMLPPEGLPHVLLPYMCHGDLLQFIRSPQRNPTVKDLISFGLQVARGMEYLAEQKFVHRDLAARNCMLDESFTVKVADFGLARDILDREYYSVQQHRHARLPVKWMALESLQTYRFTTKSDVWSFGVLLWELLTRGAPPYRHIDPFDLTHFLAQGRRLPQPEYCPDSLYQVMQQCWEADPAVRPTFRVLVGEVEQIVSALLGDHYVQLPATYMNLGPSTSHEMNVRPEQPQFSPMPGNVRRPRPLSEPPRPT
T2 sequence (P19784 whole entry): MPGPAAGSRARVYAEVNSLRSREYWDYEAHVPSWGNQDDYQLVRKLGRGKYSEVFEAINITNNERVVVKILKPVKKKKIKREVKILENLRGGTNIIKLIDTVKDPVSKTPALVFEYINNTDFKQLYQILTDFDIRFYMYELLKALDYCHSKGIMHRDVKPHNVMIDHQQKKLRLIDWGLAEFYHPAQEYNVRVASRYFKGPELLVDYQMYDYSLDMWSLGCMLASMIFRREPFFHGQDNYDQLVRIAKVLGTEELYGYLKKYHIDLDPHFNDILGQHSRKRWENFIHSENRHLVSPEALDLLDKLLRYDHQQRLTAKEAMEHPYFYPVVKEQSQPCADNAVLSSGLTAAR
T5 sequence (Q9UPE1 whole entry): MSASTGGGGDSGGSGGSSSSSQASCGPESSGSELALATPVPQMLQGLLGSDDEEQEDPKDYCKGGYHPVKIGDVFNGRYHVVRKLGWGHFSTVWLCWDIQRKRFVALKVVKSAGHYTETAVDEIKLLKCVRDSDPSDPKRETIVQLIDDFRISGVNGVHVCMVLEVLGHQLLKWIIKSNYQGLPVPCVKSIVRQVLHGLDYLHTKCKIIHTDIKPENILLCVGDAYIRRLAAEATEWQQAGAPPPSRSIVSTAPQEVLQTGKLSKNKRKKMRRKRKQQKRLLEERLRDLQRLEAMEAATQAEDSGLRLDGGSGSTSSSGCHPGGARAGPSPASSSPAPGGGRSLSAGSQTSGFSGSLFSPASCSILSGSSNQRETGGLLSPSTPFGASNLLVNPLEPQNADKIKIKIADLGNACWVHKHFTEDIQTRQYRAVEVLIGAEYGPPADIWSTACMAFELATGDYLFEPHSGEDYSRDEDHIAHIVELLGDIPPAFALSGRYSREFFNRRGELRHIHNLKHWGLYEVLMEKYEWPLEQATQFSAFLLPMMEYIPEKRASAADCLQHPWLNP
T3 sequence (P34947 whole entry): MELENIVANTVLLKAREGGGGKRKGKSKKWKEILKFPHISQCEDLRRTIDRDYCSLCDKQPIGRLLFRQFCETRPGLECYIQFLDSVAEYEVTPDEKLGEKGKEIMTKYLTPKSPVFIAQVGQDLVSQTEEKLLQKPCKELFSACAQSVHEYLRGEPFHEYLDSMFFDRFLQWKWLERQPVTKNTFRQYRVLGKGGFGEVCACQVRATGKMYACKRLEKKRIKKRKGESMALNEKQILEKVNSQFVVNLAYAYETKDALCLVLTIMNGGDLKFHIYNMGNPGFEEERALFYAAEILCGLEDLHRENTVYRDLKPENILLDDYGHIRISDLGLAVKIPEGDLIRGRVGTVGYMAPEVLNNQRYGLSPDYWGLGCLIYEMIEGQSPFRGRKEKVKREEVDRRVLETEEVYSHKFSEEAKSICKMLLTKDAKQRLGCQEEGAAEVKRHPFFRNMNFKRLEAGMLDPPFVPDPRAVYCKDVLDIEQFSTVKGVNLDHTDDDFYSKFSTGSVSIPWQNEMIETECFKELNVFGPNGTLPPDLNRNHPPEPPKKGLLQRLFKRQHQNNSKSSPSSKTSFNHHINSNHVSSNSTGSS

## COc1ccc(-c2cc(C(=O)Nc3cc(-c4c(-c5ccc(F)cc5)noc4C(C)C)ccn3)n(CC3NCC(O)C3O)c2)cc1 (stereo not shown) [29d]
[1]
  IC50: 0.038 ± 0.003 µM
[1]; 10 µM compound, read-out: CK1δ Residual Activity [%] at 10 µM ± SD
  remaining activity at 10 µM: 2.9 ± 0.3%
[2]
  formation of Pictet-Spengler products in aqueous solution with PEG: significant product formation
CK2-alpha2
  remaining activity at 1 µM: 111%
GRK5
  remaining activity at 1 µM: 97%
RON
  remaining activity at 1 µM: 115%
STK23
  remaining activity at 1 µM: 96%
